“And” between values parts separate entries of the source, which are not always exact repeats. Equal values may be shown once. Read-outs that look alike come from different tables or passages of the source.
Tests used:
PDO10 = assay: cell viability in patient-derived CRC organoids PDO10; assay type: cell-based, human
Experimental: (§1) For in vitro treatment studies, organoids were mechanically dissociated and digested using TrypLE supplemented with 100 µg ml^−1 DNaseI and 10.5 µM Y-27632 dihydrochloride (Invitrogen) at 37 °C. A total of 1,000–2,000 single cells were plated per well in white 96-well plates (Greiner) in culture medium containing 10% GFR Matrigel or Cultrex BME. The treatment with doxycycline (5 µg ml^−1), pharmacological inhibitors or corresponding volumes of DMSO was started 24 h after plating. Doxycycline was obtained from Sigma-Aldrich. […] Cell viability was measured by means of CellTiter-Glo 3D or CellTiter-Glo 2.0 reagent (Promega) according to the manufacturers’ instructions and the Infinite M Plex reader (Tecan, i-control version 3.9.1 software). Results were normalized to vehicle (DMSO) or to shNC. For cell-doubling assays, the cell number was quantified at the corresponding time points using Guava EasyCyte flow cytometer (Luminex, CytoSoft v5.2 software).

HT-29 = assay: cell viability in human CRC cell line HT-29; assay type: cell-based; conditions: ED Fig. 9h, replicates; for viability at 0.0137 µM / viability at 0.0412 µM / viability at 0.1235 µM / viability at 0.3704 µM / viability at 1.1111 µM / viability at 3.3333 µM / viability at 10 µM: Homo sapiens, read-out: HT-29 Cell viability (%); for viability at 0.0137 µM: HT-29, 0.0137 µM; for viability at 0.0412 µM: HT-29, 0.0412 µM; for viability at 0.1235 µM: HT-29, 0.1235 µM; for viability at 0.3704 µM: HT-29, 0.3704 µM; for viability at 1.1111 µM: HT-29, 1.1111 µM; for viability at 3.3333 µM: HT-29, 3.3333 µM; for viability at 10 µM: HT-29, 10.0000 µM
Experimental: To generate KAP^2D cells, KAP organoids were isolated from Matrigel, fragmented by mechanical dissociation and plated without any extracellular matrix on common cell culture dishes. Phoenix-Eco packaging cells (CRL-3214), HCT-15 (CCL-225), HCT 116 (CCL-247), COLO 205 (CCL-222), LS 174T (CL-188), RKO (CRL-2577) and HT-29 (HTB-38) were obtained from the American Type Culture Collection. The cells were cultured at 37 °C and 7% CO2 with RPMI (KAP^2D cells) or DMEM (other cell lines), supplemented with 10% FBS and penicillin–streptomycin. KAP^2D cells were authenticated using PCR (Kras locus and Trp53 locus). Phoenix-Eco packaging cells and HCT-15, HCT 116, COLO 205, LS 174T, RKO and HT-29 cells were authenticated by the provider using short tandem repeat profiling. No commonly misidentified cell lines were used. Mycoplasma contamination was excluded by a PCR-based analysis.
as §1

PDO12 = assay: cell viability in patient-derived CRC organoids PDO12; assay type: cell-based, human
Experimental: as §1

PDO2 = assay: cell viability in patient-derived CRC organoids PDO2; assay type: cell-based, human; conditions: Fig. 3c, replicates
Experimental: as §1

PDO5 = assay: cell viability in patient-derived CRC organoids PDO5; assay type: cell-based, human; conditions: Fig. 3f, replicates
Experimental: as §1

[1] = in vivo pharmacokinetic studies in mice (plasma, LC-MS); set-up: species or system mouse
Experimental: No mice were excluded during treatment studies. […] GFP imaging of tumors was performed using a Hamamatsu imaging system. For quantification of compounds in the murine plasma, 20 μl of tail-vein blood was diluted with 80 μl of heparin solution, before 200 μl of ice-cold acetonitrile with a defined internal standard was added. The samples were sonicated and centrifuged and the supernatant was subjected to liquid chromatography-mass spectrometry quantification. Full blood analyses were performed with the Sysmex KX-21N hematology analyzer.

PDO3 = assay: cell viability in patient-derived CRC organoids PDO3; assay type: cell-based, human; conditions: Fig. 3d, replicates
Experimental: as §1

KAP^2D cells = assay: western blot analysis of p38α signaling in KAP^2D cells; assay type: cell-based, mouse; conditions: 1 µM, 1 day
Experimental: Proteins were extracted from cells and organoids using radioimmunoprecipitation assay extraction buffer (50 mM Tris pH 8.0, 150 mM NaCl, 1% Triton X-100, 0.5% sodium deoxycholate, 0.1% SDS, 5 mM EDTA and 1 mM EGTA) supplemented with protease and phosphatase inhibitors (cOmplete and PhosSTOP, Roche). Protein concentrations were measured using the DC (detergent compatible) Protein Assay (Bio-Rad). Briefly, 20–30 µg of protein was separated by SDS–PAGE and transferred onto PVDF membranes (Immobilon-P, Millipore). Membranes were blocked in 5% BSA and Tris-buffered saline (TBS)–Tween buffer and then incubated with primary antibodies overnight at 4 °C and with horseradish peroxidase-conjugated secondary antibodies for 1 h at room temperature. All used antibodies and dilutions are listed in the Nature Portfolio Reporting Summary. The blots were visualized using the ChemiDoc MP Imaging System (BIO-RAD) and ImageLab version 5.2.1 software. Vinculin and β-actin were used as loading controls.

[2] = mouse, plasma, oral administration in mice, 20 mg kg^−1
[3] = oral administration in mice, 20 mg kg^−1

For `O=C(NCCN1CCOCC1)c1ccc2c(c1)C(=O)c1ccc(Nc3ccc(F)c(NC(=O)c4ccccc4)c3)cc1CC2` [Compound 1639], the viability at 0.5 µM (PDO10; Homo sapiens, 96 h, PDO10, 0.5 µM, 4 d, read-out: Cell viability (%)) was 90.3%, the viability at 1 µM (PDO10; Homo sapiens, 96 h, PDO10, 1 µM, 4 days, read-out: Cell viability (%)) was 87.1% and the “Cell viability (%)” value (PDO10; PDO10, 0.5 µM, 4 d, 0.5 µM) was 99.84% and 101.72%. The “Cell viability (%)” value (PDO10; PDO10, 1 µM, 4 days, 1 µM) was 92.00% and 89.92%, the “HT-29 Cell viability (%)” value (HT-29; 0.0137 µM, Repetition) was 102.28% and 94.62% and the “HT-29 Cell viability (%)” value (HT-29; 0.0137 µM, first experiment) was 94.47% and 95.05%. For the same compound, the “HT-29 Cell viability (%)” value (HT-29; 0.0412 µM, Repetition) was 101.53% and 96.63%, the “HT-29 Cell viability (%)” value (HT-29; 0.0412 µM, first experiment) was 94.54% and 96.05% and the “HT-29 Cell viability (%)” value (HT-29; 0.1235 µM, Repetition) was 102.40% and 91.02%. The “HT-29 Cell viability (%)” value (HT-29; 0.1235 µM, first experiment) was 88.93% and 89.95%, the “HT-29 Cell viability (%)” value (HT-29; 0.3704 µM, Repetition) was 96.43% and 88.31% and the “HT-29 Cell viability (%)” value (HT-29; 0.3704 µM, first experiment) was 89.51% and 89.95%. The “HT-29 Cell viability (%)” value (HT-29; 1.1111 µM, Repetition) was 89.29% and 79.16%, the “HT-29 Cell viability (%)” value (HT-29; 1.1111 µM, first experiment) was 95.25% and 92.43% and the “HT-29 Cell viability (%)” value (HT-29; 3.3333 µM, Repetition) was 53.45% and 49.18%. For the same compound, the “HT-29 Cell viability (%)” value (HT-29; 3.3333 µM, first experiment) was 66.80% and 71.86%, the “HT-29 Cell viability (%)” value (HT-29; 10.0000 µM, Repetition) was 3.09% and 3.77% and the “HT-29 Cell viability (%)” value (HT-29; 10.0000 µM, first experiment) was 4.59% and 5.12%. For the same compound, the viability at 0.0137 µM (HT-29; Repetition) was 102%, the viability at 0.0137 µM (HT-29; first experiment) was 94.8% and the viability at 0.0412 µM (HT-29; Repetition) was 105%. For the same compound, the viability at 0.0412 µM (HT-29; first experiment) was 93.8%, the viability at 0.1235 µM (HT-29; Repetition) was 104% and the viability at 0.1235 µM (HT-29; first experiment) was 88.1%. For the same compound, the viability at 0.3704 µM (HT-29; Repetition) was 95.8%, the viability at 0.3704 µM (HT-29; first experiment) was 88.9% and the viability at 1.1111 µM (HT-29; Repetition) was 88.5%. For the same compound, the viability at 1.1111 µM (HT-29; first experiment) was 92.4%, the viability at 3.3333 µM (HT-29; Repetition) was 52.9% and the viability at 3.3333 µM (HT-29; first experiment) was 70.7%. The viability at 10 µM (HT-29; Repetition) was 3.22%, the viability at 10 µM (HT-29; first experiment) was 4.71% and the “Cell viability (%)” value (PDO12; PDO12, 0.5 µM, 4 d, 0.5 µM) was 74.14% and 86.52% and 99.28%. The “Cell viability (%)” value (PDO12; PDO12, 1 µM, 4 days, 1 µM) was 67.94% and 91.05% and 88.04%, the “Cell viability (%)” value (PDO2; 0,5 µM, 5 µM) was 69.57% and 95.69% and 90.88% and the “Cell viability (%)” value (PDO2; 0,25 µM) was 93.94% and 86.22% and 63.24%. For the same compound, the “Cell viability (%)” value (PDO2; 1 µM) was 53.19% and 51.96%, the viability at 1 µM (PDO2; Homo sapiens, 1 µM) was 68.7% and the “Cell viability (%)” value (PDO5; 0,5 µM, 5 µM) was 95.85% and 89.27%. For the same compound, the “Cell viability (%)” value (PDO5; 0,25 µM, 25 µM) was 102.83% and 96.93% and 77.02%, the “Cell viability (%)” value (PDO5; 1 µM) was 104.30% and 89.98% and 81.04% and the Plasma concentration ([1]; 0 min of treatment, individual animals) was 0.00 µM. For the same compound, the Plasma concentration ([1]; 45 min of treatment, individual animals) was 7.88 µM and 3.04 µM and 8.11 µM, the Plasma concentration ([1]; 90 min of treatment, individual animals) was 5.28 µM and 6.24 µM and the Plasma concentration ([1]; 180 min of treatment, individual animals) was 4.65 µM and 2.91 µM and 1.27 µM. The Plasma concentration ([1]; 480 min of treatment, individual animals) was 0.69 µM and 0.19 µM and 0.76 µM, the Plasma concentration ([1]; 1440 min of treatment, individual animals) was 0.00 µM and the concentration at 0 min ([1]; mouse, plasma, oral, 20 mg kg^−1, 0 min of treatment, individual animals) was 0 nM. For the same compound, the concentration at 90 min ([1]; mouse, plasma, oral, 20 mg kg^−1, 90 min of treatment, individual animals) was 8.68 µM, the concentration at 1440 min ([1]; mouse, plasma, oral, 20 mg kg^−1, 1440 min of treatment, individual animals) was 0 nM and the AUC [1, 2] was 27.6 µM·h. The half-life [1, 2] was 2 h, the “C^max” value [1, 3] was 6.7 µM and the “t^max” value [1, 3] was 90 min. The “Cell viability (%)” value (PDO3; 0,5 µM, 5 µM) was 112.45% and 94.73% and 79.47%, the “Cell viability (%)” value (PDO3; 0,25 µM, 25 µM) was 111.26% and 82.86% and 90.87% and the “Cell viability (%)” value (PDO3; 1 µM) was 101.94% and 81.53% and 90.79%. The “MK2^T334 phosphorylation (in words)” value (KAP^2D cells) was “reduced MK2^T334 phosphorylation”.
